Tests used:
[1] = Plasma stability test, mouse plasma; assay type: in vitro ADME; conditions: 37° C., 300 μM
Description: (§1) Compound A-2 or A-3 and MPS used as an internal standard were dissolved in DMSO to achieve a concentration of 60 mM. Then, each of human plasma (Biochemed 752PR-SC-PMG), mouse plasma (Biochemed 029-APSC-MP), rat plasma (Biochemed 031-APSC-MP), and beagle dog plasma (Biochemed 013-APSC-MP) were mixed with the solution of the compound and MPS to achieve a final concentration of 300 μM (final 0.5% DMSO). The resulting plasma mixtures were incubated at 37° C. Aliquots were taken before the reaction and after 1 day, 2 days, 4 days, and 7 days. Each aliquot was 300 μL. To complete the reaction, two-fold volume of acetonitrile was added, followed by brief vortexing and centrifugation for plasma protein precipitation. Each supernatant obtained after centrifugation was collected and analyzed by HPLC. Compounds A-2 and A-3 were detected and quantitated in the mouse and human plasma for up to 7 days (>95%). […] The results of the plasma stability studies are shown in Tables 3 and 4 and FIGS. 6 and 7.

[2] = Plasma stability test, human plasma; assay type: in vitro ADME; conditions: 37° C., 300 μM
Description: as §1

Remaining Substrate, %, Mouse Plasma ([1]; 0 days) [%] | Remaining Substrate, %, Mouse Plasma ([1]; 1 day) [%] | Remaining Substrate, %, Mouse Plasma ([1]; 2 days) [%] | Remaining Substrate, %, Mouse Plasma ([1]; 4 days) [%] | Remaining Substrate, %, Mouse Plasma ([1]; 7 days) [%] | Remaining Substrate, %, Human Plasma ([2]; 0 days) [%] | Remaining Substrate, %, Human Plasma ([2]; 1 day) [%] | Remaining Substrate, %, Human Plasma ([2]; 2 days) [%] | Remaining Substrate, %, Human Plasma ([2]; 4 days) [%] | Remaining Substrate, %, Human Plasma ([2]; 7 days) [%] | Structure (SMILES)
100 | 102 | 100 | 97 | 95 | 100 | 100 | 104 | 99 | 101 | CC(C)(C)OC(=O)N[C@@H](Cc1ccc(OS(=O)(=NCCOCCOCCOCCN=[N+]=[N-])Oc2ccccc2O[C@@H]2O[C@H](CO)[C@H](O)[C@H](O)[C@H]2O)cc1)C(=O)O (stereo partly drawn) [Compound A-2]
100 | 94 | 90 |  | 92 | 100 | 97 | 98 |  | 99 | C[N+]1(Cc2ccc(OS(=O)(=NCCOCCOCCOCCN=[N+]=[N-])Oc3ccccc3O[C@@H]3O[C@H](CO)[C@H](O)[C@H](O)[C@H]3O)cc2)CCCC[C@@H]1C(=O)Nc1ccccc1 (stereo partly drawn) [Compound A-3]
